The record followed here is US6825223B2, “Anilide compounds and pharmaceutical compositions comprising them” (Kowa Company, Ltd., priority 1996, dated 2004).

Test [1] deals with T1, ACAT (small intestine-derived enzyme) (Oryctolagus cuniculus, UniProt G1SFD9).
T1 sequence (G1SFD9 1-524): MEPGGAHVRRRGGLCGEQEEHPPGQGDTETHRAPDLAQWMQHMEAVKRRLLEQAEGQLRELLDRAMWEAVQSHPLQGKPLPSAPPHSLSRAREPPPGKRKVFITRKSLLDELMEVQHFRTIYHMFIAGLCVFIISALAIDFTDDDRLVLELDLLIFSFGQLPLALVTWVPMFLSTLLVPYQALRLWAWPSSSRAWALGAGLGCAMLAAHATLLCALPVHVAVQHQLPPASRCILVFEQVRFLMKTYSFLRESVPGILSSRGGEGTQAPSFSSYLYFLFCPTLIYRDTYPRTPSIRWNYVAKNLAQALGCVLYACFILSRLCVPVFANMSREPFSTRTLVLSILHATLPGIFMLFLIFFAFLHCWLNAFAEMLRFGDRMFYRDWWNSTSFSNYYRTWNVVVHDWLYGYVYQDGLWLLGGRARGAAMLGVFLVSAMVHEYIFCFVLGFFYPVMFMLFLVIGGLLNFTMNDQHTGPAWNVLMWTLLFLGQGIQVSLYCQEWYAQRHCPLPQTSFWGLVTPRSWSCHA
Kind of test: ACAT inhibiting activity, small intestine-derived enzyme liquid. It counts as biochemical, rabbit. As to conditions: small intestines of rabbits fed ordinary feed; 14C-oleoyl-CoA; 37° C. 3 minutes. Here is the method: (§1) Rabbits were fed with 1% cholesterol feed for 8 weeks. Microsomes were prepared from the thoracoaorta of the rabbits in an ordinary manner, and suspended in 0.15 M phosphate buffer (pH 7.4) to prepare blood vessel wall-derived enzyme liquids, Small intestine-derived enzyme liquids were prepared from the small intestines of rabbits fed with ordinary feed. […] 10 μl of the enzyme liquid was added to the resulting solution and reacted at 37° C. for 5 minutes (for small intestine-derived enzyme liquids, for 3 minutes), and thereafter 3 ml of chloroform/methanol (2/1) and 0.5 ml of 0.04 N HCl were added thereto to stop the reaction. After the reaction, lipids were extracted from the reaction mixtures. The solvent layer was concentrated to dryness, then dissolved in hexane, spotted on a TLC plate (produced by Merck), and developed thereon with a developer of hexane/ether/acetic acid (75/25/1) The radioactivity of the thus-fractionated cholesterol ester fraction was measured with BAS2000 (produced by Fuji Film).

The target in a further test is T2, ACAT in J774 cell (Mus musculus, UniProt Q61263).
T2 construct: endogenous in cells; host or cells: J774 cells
T2 sequence (Q61263 1-540): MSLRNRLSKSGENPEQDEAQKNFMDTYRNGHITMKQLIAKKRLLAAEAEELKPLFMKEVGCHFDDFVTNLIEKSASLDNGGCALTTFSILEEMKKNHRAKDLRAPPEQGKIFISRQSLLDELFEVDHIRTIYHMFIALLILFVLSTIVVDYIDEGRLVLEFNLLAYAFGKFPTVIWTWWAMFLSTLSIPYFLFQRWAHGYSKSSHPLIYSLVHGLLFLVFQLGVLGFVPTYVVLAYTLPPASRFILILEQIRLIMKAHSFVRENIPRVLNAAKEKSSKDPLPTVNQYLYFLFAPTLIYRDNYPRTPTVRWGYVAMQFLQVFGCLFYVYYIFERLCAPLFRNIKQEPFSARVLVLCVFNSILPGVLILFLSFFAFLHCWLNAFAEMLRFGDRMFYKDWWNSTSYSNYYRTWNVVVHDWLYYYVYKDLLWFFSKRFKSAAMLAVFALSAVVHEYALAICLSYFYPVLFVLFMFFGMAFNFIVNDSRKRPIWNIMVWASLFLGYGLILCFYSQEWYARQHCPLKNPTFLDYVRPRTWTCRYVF
Kind of test: ACAT inhibiting activity in J774 cell (anti-foaming activity). The test is classed as cell-based. As to conditions: for IC50 (HepG 2)/IC50 (J 774): ratio of the two cell IC50 values; for IC50: J774 cell, 10 μg/ml 25-OH cholesterol, 18 hours, cholesterol ester per protein, read-out: J 774 Cell-Derived Enzyme IC50. Here is the method: (§2) ACAT inhibiting activities in J774 cell and HepG2 cell (Anti-foaming activities).
(§3) J774 cell and HepG2 cell were sown on 24-holes-plates, and J774 cell was cultured with DMEM culturing solution (including 10% fetal bovine serum) and HepG2 cell was cultured with MEM culturing solution (including 10% fatal bovine serum) and they were incubated with 5% CO2 at 37° C. for 24 hours. […] After redwing the medium, each cultured cell was washed with PBS two ties, and then extracted with 1.5 ml of hexane:iso-propanol (3:2), and concentrated and dried. Each extracted substance was dissolved into iso-propanol including 0.2 ml of 10% Triton X-100. And total cholesterol (TC) of each was measured with Cholesterol E Test Wako (Wako Junyaku Co.), and free cholesterol […] of each was measured with Free Cholesterol E Test Wako (Wako Junyaku Co.). The residue of extracting was dissolved with 0.25 ml of 2N NaOH at 37° C. for 30 minutes, and an amount of protein was measured with BCA Protein Assay Reagent (Pierce). The amount of cholesterol ester per protein was calculated based on a difference between TC and FC, and IC50 was calculated in contrast with control.

In the next test the test system is ACAT in HepG2 cell. Briefly: ACAT inhibiting activity in HepG2 cell. It counts as cell-based. As to conditions: 10 μg/ml 25-OH cholesterol, 18 hours, cholesterol ester per protein, read-out: HepG 2-Derived Enzyme IC50. The procedure: as §2, §3
Test [2] concerns the target ACAT (blood vessel wall-derived enzyme) (Oryctolagus cuniculus, UniProt G1SUQ0). Kind of test: ACAT inhibiting activity, blood vessel wall-derived enzyme liquid (thoracoaorta microsomes). As to conditions: microsomes from thoracoaorta of rabbits fed 1% cholesterol feed; 14C-oleoyl-CoA; 37° C. 5 minutes. It counts as biochemical, rabbit. Here is the method: as §1
Test [3] is described as follows: Deterioration action of cholesterol in plasma, F1B hamster on hyperfat foods. It counts as in vivo, BIO F1B hybrid syrian hamster. As to conditions: for inhibiting an increase (%): 4th week, against hyperfat and ordinal foods groups; for Total Cholestrol in Plasma, At the 4th Week: fed 4 weeks. The procedure:
A deterioration action of cholesterol in plasma was tested with BIO F1B hybrid syrian hamster (Mark C. K. et al., Atheorosclerosis, 91 (1991) 35-49: abbreviated as FIB hamster in the following) which has an accumulation of Cholesterol in blood vessel by cholesterol load. That is 4 groups of FIB hamster (male, 8 weeks old, about 100 g weight) were made, which had five hamsters respectively, and the hamsters were fed with the below-described feeds corresponding to each group for 4 weeks. At the 4th week from beginning feed, blood of the hamsters were drawn from their jugulars; and values of total cholesterols in plasma were measured with the enzyme method.

[4] abbreviates: group (3): 0.03% compound added to hyperfat foods.
[5] abbreviates: group (4): 0.3% compound added to hyperfat foods.

Sequence of ACAT (blood vessel wall-derived enzyme) (G1SUQ0 entry or part of it): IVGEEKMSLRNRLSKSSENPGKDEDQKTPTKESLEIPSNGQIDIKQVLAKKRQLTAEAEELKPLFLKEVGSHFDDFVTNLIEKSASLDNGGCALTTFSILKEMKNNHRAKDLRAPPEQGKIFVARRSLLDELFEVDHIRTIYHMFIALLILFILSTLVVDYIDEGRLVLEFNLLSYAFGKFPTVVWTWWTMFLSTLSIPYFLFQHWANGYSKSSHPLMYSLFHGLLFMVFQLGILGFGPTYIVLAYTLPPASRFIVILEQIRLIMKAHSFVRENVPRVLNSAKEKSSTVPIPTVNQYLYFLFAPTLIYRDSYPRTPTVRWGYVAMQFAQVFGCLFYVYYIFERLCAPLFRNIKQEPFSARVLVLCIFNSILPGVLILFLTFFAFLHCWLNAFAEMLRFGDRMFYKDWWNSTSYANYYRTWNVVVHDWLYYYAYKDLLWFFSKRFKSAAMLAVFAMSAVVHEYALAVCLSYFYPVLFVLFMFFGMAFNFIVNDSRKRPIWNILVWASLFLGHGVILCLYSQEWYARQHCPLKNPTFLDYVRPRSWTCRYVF

Regarding `CC(C)c1cccc(C(C)C)c1NC(=O)C(C)(C)CCCOc1ccc2c(c1)C=C(c1nccn1C)C(CCc1ccc(F)cc1)O2` (stereo not shown) [Control (1), 5-[2-(2-(4-fluorophenyl)ethyl)-3-(1-methyl-1H-imidazol-2-yl) -2H-benzopyran-6-yl]oxy-2,2-dimethyl-N-(2,6-diisopropylphenyl)pentanamide, reference compound], in test [1], the IC50 was found to be 870 nM. In addition, on ACAT in J774 cell, the “IC50 (HepG 2)/IC50 (J 774)” value came out at 9.46.
Take `CCCCCCCCCCCCCCSCC(=O)Nc1c(C(C)C)cccc1C(C)C` [Control (2), N-(2,6-diisopropylphenyl) -2-(tetradecylthio)acetamide, reference compound]: the IC50 with ACAT in HepG2 cell turned out to be 1400 nM; at ACAT in J774 cell, 150 nM.
Turning to `CCCCCCCN(CCCCCSc1nc(-c2ccccc2)c(-c2ccccc2)[nH]1)c1nc2ccccc2o1` [Control (4), N4-[5-(4,5-diphenyl-1H-imidazol-2-ylthio)pentyl]-N-heptyl-2-benzoxazolamine, reference compound], the IC50 was determined as 37 nM in test [1], 26 nM in test [2] and 120 nM at ACAT in J774 cell. Moreover, the “IC50 (HepG 2)/IC50 (J 774)” value at ACAT in J774 cell was found to be 6.26.
For `CC(C)c1cccc(C(C)C)c1NC(=O)CSc1nc2ccccc2o1` [Example 1, 2-(benzoxazol-2-ylthio)-N-(2,6-diisopropylphenyl)acetamide], the IC50 with ACAT in HepG2 cell worked out at 1000 nM. On ACAT in J774 cell, the IC50 amounted to 1200 nM and the “IC50 (HepG 2)/IC50 (J 774)” value came out at 0.83.
As to `CC(C)c1cccc(C(C)C)c1NC(=O)CCSc1nc2ccccc2o1` [Example 2, 3-(benzoxazol-2-ylthio)-N-(2,6-diisopropylphenyl)propanamide], the IC50 amounted to 1200 nM in the test on ACAT in HepG2 cell and 470 nM on ACAT in J774 cell. The “IC50 (HepG 2)/IC50 (J 774)” value on ACAT in J774 cell was found to be 2.55.
Regarding `CC(C)c1cccc(C(C)C)c1NC(=O)CCCCCSc1nc2ccccc2o1` [Example 5, 6-(benzoxazol-2-ylthio)-N-(2,6-diisopropylphenyl)hexanamide], the IC50 in test [1] was determined as 65 nM; in test [2] it was 10 nM.
For `CC(C)c1cccc(C(C)C)c1NC(=O)CCCCCCCCSc1nc2ccccc2o1` [Example 8, 9-(benzoxazol-2-ylthio)-N-(2,6-diisopropylphenyl)nonanamide], in test [3] (setting [4]), the “inhibiting an increase (%)” value was 80.5%; the “Total Cholestrol in Plasma, Before Dosage” value came out at 155.5 ± 10.1 mg/dL; the “Total Cholestrol in Plasma, At the 4th Week” value came to 398.3 ± 64.3 mg/dL. Besides, in test [3] (setting [5]), the “inhibiting an increase (%)” value was 111.7%; the “Total Cholestrol in Plasma, Before Dosage” value is 164.3 ± 8.8 mg/dL; the “Total Cholestrol in Plasma, At the 4th Week” value was determined as 170.1 ± 18.5 mg/dL.
On to `CC(C)c1cccc(C(C)C)c1NC(=O)CSc1nc2ccccc2[nH]1` [Example 23, 2-(benzimidazol-2-ylthio)-N-(2,6-diisopropylphenyl)acetamide], for which, in the test with ACAT in HepG2 cell, the IC50 was 12000 nM. Besides, on ACAT in J774 cell, the IC50 turned out to be 2200 nM and the “IC50 (HepG 2)/IC50 (J 774)” value is 6.45.
For `CC(C)c1cccc(C(C)C)c1NC(=O)CCCSc1nc2ccccc2s1` [Example 44, 4-(benzothiazol-2-ylthio)-N-(2,6-diisopropylphenyl)butanamide], the IC50 in the test with ACAT in HepG2 cell amounted to 2100 nM. On ACAT in J774 cell, the IC50 came out at 5600 nM and the “IC50 (HepG 2)/IC50 (J 774)” value came out at 0.38.
